Test results: BindingDB's records for patent US12226414 (Suzhou Zanrong Pharma, 2025)

Target: Serine/threonine-protein kinase ATR (Homo sapiens, UniProt Q13535)
Assay: ATR Biochemical Potency Assay
Method: ATR enzyme was made by ChemPartner (batch: CP-ATR-20161102-M2). 2× enzyme solutions were prepared in 1× kinase base buffer. 10 μl of 2× enzyme solution (final concentration: 2.5 nM) was added to each well of the 384-well assay plate containing 60 nl compound in each well. The plate was incubated at room temperature for 10 minutes. 2× peptide solutions were prepared with FAM-labeled peptide and ATP in the 1× kinase base buffer. 10 μl of 2× peptide solution was added to each well of the 384-well assay plate, which was incubated at 28° C. for 240 min. 40 μl of stop buffer was added to stop reaction. Data were collected by Caliper.

Sequence of Serine/threonine-protein kinase ATR (Q13535 whole entry): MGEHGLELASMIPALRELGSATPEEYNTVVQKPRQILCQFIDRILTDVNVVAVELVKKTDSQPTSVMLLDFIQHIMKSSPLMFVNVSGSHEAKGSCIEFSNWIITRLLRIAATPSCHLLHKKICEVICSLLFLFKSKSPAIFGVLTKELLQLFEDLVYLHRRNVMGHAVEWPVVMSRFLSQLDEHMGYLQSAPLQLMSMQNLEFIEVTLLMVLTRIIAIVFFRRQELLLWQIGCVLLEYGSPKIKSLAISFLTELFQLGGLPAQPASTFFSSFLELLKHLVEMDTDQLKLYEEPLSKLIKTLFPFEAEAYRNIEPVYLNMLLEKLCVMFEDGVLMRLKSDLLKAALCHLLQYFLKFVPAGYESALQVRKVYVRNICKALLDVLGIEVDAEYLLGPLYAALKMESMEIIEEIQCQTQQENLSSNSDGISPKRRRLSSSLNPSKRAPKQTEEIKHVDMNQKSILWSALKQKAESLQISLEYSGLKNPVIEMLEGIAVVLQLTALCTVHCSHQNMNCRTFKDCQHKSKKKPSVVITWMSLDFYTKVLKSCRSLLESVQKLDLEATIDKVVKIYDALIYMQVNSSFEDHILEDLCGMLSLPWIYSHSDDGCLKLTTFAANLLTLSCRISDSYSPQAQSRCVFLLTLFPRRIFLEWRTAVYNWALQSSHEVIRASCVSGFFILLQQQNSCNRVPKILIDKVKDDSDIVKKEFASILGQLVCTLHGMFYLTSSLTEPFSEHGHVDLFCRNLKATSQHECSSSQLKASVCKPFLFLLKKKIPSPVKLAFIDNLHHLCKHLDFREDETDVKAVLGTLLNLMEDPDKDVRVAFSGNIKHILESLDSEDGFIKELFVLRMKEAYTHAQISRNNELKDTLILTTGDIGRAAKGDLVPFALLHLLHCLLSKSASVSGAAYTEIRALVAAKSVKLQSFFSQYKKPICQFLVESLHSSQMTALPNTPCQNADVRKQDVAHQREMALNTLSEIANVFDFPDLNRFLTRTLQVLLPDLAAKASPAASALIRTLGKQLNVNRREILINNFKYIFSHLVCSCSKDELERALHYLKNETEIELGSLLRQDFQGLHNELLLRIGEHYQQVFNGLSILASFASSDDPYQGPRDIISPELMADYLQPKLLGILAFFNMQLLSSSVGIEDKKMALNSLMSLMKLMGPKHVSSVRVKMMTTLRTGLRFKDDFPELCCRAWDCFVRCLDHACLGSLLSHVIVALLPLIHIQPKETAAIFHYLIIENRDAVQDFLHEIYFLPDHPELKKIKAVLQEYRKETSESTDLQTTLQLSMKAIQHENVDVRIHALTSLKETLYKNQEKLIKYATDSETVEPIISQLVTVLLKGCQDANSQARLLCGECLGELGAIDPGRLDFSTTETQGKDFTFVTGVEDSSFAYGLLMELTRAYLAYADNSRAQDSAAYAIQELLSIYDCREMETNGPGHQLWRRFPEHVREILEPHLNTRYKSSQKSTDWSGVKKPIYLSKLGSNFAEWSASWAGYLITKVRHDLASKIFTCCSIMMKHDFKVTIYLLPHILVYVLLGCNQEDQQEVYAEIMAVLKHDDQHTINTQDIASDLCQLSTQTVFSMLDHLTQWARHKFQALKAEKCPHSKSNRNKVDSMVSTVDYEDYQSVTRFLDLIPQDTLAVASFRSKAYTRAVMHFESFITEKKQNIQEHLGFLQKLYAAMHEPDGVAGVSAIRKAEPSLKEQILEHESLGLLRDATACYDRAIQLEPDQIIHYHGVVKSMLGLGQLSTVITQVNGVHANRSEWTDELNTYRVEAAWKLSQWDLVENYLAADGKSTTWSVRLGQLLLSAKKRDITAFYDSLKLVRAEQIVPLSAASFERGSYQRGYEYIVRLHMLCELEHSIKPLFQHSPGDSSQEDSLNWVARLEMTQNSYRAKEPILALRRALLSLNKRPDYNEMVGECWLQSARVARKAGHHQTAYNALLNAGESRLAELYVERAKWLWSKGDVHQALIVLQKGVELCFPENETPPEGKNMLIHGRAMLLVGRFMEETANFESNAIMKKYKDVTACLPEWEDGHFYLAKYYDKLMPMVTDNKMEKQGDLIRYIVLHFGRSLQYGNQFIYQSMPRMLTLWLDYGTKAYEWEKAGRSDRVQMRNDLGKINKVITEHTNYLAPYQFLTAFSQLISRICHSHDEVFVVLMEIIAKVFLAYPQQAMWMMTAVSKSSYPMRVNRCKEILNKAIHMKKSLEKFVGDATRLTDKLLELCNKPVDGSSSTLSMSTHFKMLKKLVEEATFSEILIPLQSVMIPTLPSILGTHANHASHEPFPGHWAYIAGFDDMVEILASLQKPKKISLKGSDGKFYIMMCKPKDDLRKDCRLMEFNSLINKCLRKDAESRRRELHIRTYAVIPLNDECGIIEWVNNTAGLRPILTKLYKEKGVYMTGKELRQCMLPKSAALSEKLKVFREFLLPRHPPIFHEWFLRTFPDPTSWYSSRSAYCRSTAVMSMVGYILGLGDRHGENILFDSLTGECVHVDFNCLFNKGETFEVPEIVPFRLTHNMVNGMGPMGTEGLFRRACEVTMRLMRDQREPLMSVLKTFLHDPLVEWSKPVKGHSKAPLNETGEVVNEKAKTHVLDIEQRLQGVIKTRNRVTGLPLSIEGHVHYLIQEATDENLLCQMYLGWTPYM

IC50 [µM]	Compound
> 10	CC(C)n1c(=O)n(C)c2nnc3cc(F)c(-c4ccc(OCCCN5CC[C@H](F)C5)nc4)cc3c21 [US12226414, Example 14]
> 10	CC(C)n1c(=O)n(C)c2nnc3cc(F)c(-c4ccc(OCCCN5CC[C@@H](F)C5)nc4)cc3c21 [US12226414, Example 15]
